Assay results published in patent US20220016115A1, “USP19 INHIBITORS FOR USE IN THERAPY” (ALMAC DISCOVERY LIMITED, priority 2018, published 2022).
“Also recorded” adds a separate entry of the source.

Columns and labels:
USP19 = biological target: T1, USP19 (Homo sapiens, UniProt O94966); assay: Cell target engagement, breast cancer cell line; type: cell-based
T1 sequence (O94966 1-1318): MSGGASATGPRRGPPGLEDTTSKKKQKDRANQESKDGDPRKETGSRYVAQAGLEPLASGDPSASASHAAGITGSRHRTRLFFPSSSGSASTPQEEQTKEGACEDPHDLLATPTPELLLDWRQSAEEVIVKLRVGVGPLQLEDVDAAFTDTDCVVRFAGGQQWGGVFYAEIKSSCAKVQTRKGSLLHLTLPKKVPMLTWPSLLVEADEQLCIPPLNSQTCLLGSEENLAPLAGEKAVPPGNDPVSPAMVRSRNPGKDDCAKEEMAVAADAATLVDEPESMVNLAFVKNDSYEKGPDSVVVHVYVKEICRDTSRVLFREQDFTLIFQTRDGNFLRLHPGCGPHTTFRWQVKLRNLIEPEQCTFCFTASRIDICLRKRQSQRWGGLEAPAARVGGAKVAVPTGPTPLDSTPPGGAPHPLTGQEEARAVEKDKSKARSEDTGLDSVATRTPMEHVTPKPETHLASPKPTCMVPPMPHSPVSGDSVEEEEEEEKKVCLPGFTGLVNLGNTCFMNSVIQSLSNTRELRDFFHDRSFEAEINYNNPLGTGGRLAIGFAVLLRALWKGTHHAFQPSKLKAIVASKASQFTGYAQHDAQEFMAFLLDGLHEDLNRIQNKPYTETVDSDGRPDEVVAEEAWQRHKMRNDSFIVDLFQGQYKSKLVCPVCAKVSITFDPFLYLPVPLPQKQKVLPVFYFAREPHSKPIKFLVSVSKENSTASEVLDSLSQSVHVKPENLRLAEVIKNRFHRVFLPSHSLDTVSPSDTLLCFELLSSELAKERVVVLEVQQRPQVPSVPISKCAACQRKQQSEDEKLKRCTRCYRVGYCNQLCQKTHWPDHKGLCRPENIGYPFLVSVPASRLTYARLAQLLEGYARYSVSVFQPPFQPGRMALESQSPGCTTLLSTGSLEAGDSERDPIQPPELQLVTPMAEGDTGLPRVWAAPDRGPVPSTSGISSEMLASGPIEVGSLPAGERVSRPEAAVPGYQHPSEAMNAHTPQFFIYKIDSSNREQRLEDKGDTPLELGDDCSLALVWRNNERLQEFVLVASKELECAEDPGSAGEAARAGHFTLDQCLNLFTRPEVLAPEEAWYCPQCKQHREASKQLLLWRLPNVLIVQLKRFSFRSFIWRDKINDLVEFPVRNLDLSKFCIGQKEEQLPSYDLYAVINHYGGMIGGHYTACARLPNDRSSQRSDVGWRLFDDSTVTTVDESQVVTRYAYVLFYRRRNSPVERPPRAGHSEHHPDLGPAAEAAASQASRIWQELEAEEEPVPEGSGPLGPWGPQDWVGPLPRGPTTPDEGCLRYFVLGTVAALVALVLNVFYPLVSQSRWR
Experimental: Cells from a breast cancer cell line, a neuroblastoma cell line and a mouse skeletal muscle cell line were treated with a USP19 inhibitor compound (ADC-141, corresponding to Example 212 provided herein) for 2 hrs, lysed (lysis buffer: 50 mM Tris pH 7.4; 150 mM NaCl; 5 mM MgCl2; 0.5 mM EDTA; 0.5% NP40; 10% Glycerol; 2 mM DTT) and Ubiquitin-propargylamine (Ub-PA; UbiQ) or Ubiquitin-vinyl methyl ester (Ub-VME; Almac Sciences Scotland Limited) was then added. Samples were analysed by western blotting probing for USP19 (EC50 determined by densitometry).

male C57bl/6 mice = assay: Sciatic nerve denervation muscle wasting model; type: in vivo; conditions: 75 mg/kg IP twice daily, vs vehicle
Experimental: To induce muscle wasting, a 1 cm segment of the sciatic nerve in the thigh was removed from mice (male C57bl/6 mice at 8-10 weeks of age; n=10 per group) under isoflurane anaesthesia and analgesia with carprofen. A sham operation was carried out in the opposite leg as a control.
Mice were randomised into Vehicle or Test groups, with all animals weighed to ensure a similar mean weight in each group. A USP19 inhibitory compound (ADC-141, which is 1-(((S)-7-((R)-3-Cyclohexyl-2-methylpropanoyl)-10-hydroxy-7-azaspiro[4.5]decan-10-yl)methyl)-4-phenyl-5-(piperazine-1-carbonyl)pyridin-2(1H)-one, corresponding to exemplary compound 212 provided herein) at 75 mg/kg or Vehicle was administered IP twice daily starting from the evening post-operation.
Mice were sacrificed 14 days later. Fat pads, liver, gastrocnemius and tibialis anterior muscles were harvested. Tissue mass were measured in both groups.

SMILES: C[C@H](CC1CCCCC1)C(=O)N1CC[C@@](O)(Cn2cc(C(=O)N3CCNCC3)c(-c3ccccc3)cc2=O)C2(CCCC2)C1 [ADC-141, 1-(((S)-7-((R)-3-Cyclohexyl-2-methylpropanoyl)-10-hydroxy-7-azaspiro[4.5]decan-10-yl)methyl)-4-phenyl-5-(piperazine-1-carbonyl)pyridin-2(1H)-one]
- cell permeability (USP19): good cell permeability
- EC50 (USP19 target engagement, densitometry) (USP19; 2 hrs treatment, Ub-PA or Ub-VME probe, western blot): low nanomolar
- liver mass (male C57bl/6 mice; 2 weeks): increase in liver mass
- mass of the epididymal fat pad (male C57bl/6 mice; 2 weeks): significant reduction in fat mass; also recorded: significantly smaller fat pads
- loss of muscle mass in the tibialis anterior muscle (male C57bl/6 mice; denervated limb, 14 days): significantly lower loss of muscle mass
- muscle wasting in the gastrocnemius muscle (male C57bl/6 mice; denervated limb, 14 days): reduced in the gastrocnemius muscle (FIG. 2), though the trend did not reach significance
